From patent publication US9150566B2, “2-(1,2,3-triazol-2-yl)benzamide and 3-(1,2,3-triazol-2-YL)picolinamide derivatives as orexin receptor antagonists” (ACTELION PHARMACEUTICALS LTD., priority 2011, dated 2015)
Where two headings read alike, the source gives them in different places.

Assays:
[1] = target: human orexin-1 receptor (Homo sapiens (Human), UniProt O43613); experiment: In vitro intracellular calcium measurements (FLIPR), antagonistic activity on orexin-1 receptor; format: cell-based; conditions: read-out: IC50 OX1
Chain of human orexin-1 receptor (O43613 whole entry): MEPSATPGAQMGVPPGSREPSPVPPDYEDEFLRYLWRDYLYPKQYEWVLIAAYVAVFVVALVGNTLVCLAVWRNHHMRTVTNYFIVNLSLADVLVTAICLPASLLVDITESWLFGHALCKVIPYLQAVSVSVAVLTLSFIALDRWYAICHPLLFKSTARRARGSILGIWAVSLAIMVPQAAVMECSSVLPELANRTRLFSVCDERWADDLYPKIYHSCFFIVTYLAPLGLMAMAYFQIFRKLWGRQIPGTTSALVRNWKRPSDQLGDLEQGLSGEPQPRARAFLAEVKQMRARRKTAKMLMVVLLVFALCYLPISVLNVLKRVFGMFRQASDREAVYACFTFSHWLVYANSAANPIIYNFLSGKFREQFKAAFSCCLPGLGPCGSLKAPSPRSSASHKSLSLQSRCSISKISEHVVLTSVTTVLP
Outline: (§1)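 Recombinant CHO lines bearing human OX1 or OX2 receptors received test antagonist 120 min before agonist addition.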

[2] = target: human orexin-2 receptor (Homo sapiens (Human), UniProt O43614); experiment: In vitro intracellular calcium measurements (FLIPR), antagonistic activity on orexin-2 receptor; format: cell-based; conditions: read-out: IC50 OX2
Chain of human orexin-2 receptor (O43614 whole entry): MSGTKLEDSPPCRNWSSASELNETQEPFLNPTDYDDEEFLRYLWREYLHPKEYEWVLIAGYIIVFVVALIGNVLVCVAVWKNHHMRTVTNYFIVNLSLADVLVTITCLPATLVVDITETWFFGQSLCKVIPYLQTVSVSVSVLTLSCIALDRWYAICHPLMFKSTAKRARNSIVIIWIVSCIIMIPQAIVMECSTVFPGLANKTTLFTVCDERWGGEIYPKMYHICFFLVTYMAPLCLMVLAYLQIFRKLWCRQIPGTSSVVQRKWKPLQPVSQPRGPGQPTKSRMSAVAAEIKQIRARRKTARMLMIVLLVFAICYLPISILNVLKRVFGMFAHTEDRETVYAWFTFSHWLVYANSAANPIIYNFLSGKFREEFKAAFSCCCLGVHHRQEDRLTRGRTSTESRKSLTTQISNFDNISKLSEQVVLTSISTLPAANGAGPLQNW
Outline: as §1

[3] = target: CYP3A4 (Homo sapiens (Human), UniProt P08684); experiment: CYP3A4 inhibition assay (human liver microsomes, testosterone 6β-hydroxylation); conditions: read-out: CYP3A4 IC50, 40 μM testosterone
Chain of CYP3A4 (P08684 whole entry): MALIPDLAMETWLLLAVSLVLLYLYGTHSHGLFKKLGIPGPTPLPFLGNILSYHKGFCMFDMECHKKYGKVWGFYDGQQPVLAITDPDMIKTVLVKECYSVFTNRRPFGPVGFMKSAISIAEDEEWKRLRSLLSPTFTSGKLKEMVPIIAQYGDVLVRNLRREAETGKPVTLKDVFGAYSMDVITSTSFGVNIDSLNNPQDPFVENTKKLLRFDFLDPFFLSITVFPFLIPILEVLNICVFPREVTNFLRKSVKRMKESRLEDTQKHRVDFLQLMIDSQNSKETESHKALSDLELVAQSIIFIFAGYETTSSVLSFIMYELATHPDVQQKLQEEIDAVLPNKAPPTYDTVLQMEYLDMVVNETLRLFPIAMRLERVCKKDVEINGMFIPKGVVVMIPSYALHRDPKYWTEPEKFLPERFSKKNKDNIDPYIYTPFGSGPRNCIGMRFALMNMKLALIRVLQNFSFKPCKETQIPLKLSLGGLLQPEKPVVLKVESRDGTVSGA

[4] = CHO cells expressing human orexin-1 receptor, FLIPR, 3 nM orexin-A agonist, 120 min antagonist incubation, geometric mean if determined several times
[5] = CHO cells expressing human orexin-2 receptor, FLIPR, 3 nM orexin-A agonist, 120 min antagonist incubation, geometric mean if determined several times

Compound	IC50 [1, 4]	IC50 [2, 5]	IC50 [3]	IC50 [1]	IC50 [2]
Cc1ccc(C(=O)N2CCOC[C@H]2Cc2ccc(C)c(-n3nccn3)c2)c(-n2nccn2)c1 [Example 67, [(R)-3-(4-Methyl-3-[1,2,3]triazol-2-yl-benzyl)-morpholin-4-yl]-(4-methyl-2-[1,2,3]triazol-2-yl-phenyl)-methanone]			25000 nM	2 nM	274 nM
C[C@@H]1COC[C@@H](Cc2cccc(-n3nccn3)c2)N1C(=O)c1ccccc1-n1nccn1 [Example 68, [(3R,5R)-3-Methyl-5-(3-[1,2,3]triazol-2-yl-benzyl)-morpholin-4-yl]-(2-[1,2,3]triazol-2-yl-phenyl)-methanone]	16 nM	1300 nM	24000 nM		
Cc1ccc(C(=O)N2[C@H](Cc3cccc(-n4nccn4)c3)COC[C@@H]2C)c(-n2nccn2)c1 [Example 71, [(3S,5R)-3-Methyl-5-(3-[1,2,3]triazol-2-yl-benzyl)-morpholin-4-yl]-(4-methyl-2-[1,2,3]triazol-2-yl-phenyl)-methanone]			14000 nM	35 nM	2190 nM
Cc1ccc(C(=O)N2CCOC[C@H]2Cc2cccc(-c3ncon3)c2)c(-n2nccn2)c1 [Example 81, (4-Methyl-2-[1,2,3]triazol-2-yl-phenyl)-[(R)-3-(3-[1,2,4]oxadiazol-3-yl-benzyl)-morpholin-4-yl]-methanone]	2 nM	212 nM	33000 nM		
O=C(c1cc(Cl)ccc1-n1nccn1)N1CCOC[C@H]1Cc1cccc(-c2ncon2)c1 [Example 84, (5-Chloro-2-[1,2,3]triazol-2-yl-phenyl)-[(R)-3-(3-[1,2,4]oxadiazol-3-yl-benzyl)-morpholin-4-yl]-methanone]	5 nM	246 nM	21000 nM		
Cc1cc(C(=O)N2CCOC[C@H]2Cc2cccc(-c3ncon3)c2)c(-n2nccn2)cc1C [Example 85, (4,5-Dimethyl-2-[1,2,3]triazol-2-yl-phenyl)-[(R)-3-(3-[1,2,4]oxadiazol-3-yl-benzyl)-morpholin-4-yl]-methanone]	1 nM	21 nM	25000 nM		

Now from value to compound, other results behind:

IC50 [1, 4]	IC50 [2, 5]	IC50 [3]	Compound	IC50 [1]	IC50 [2]
2 nM	261 nM	22000 nM	Cc1ccc(-n2nccn2)c(C(=O)N2CCOC[C@H]2Cc2ccc(C)c(-n3nccn3)c2)c1 [Example 65, [(R)-3-(4-Methyl-3-[1,2,3]triazol-2-yl-benzyl)-morpholin-4-yl]-(5-methyl-2-[1,2,3]triazol-2-yl-phenyl)-methanone]		
16 nM	992 nM	36000 nM	Cc1ccc(C[C@@H]2COCCN2C(=O)c2ccccc2-n2nccn2)cc1-n1nccn1 [Example 66, [(R)-3-(4-Methyl-3-[1,2,3]triazol-2-yl-benzyl)-morpholin-4-yl]-(2-[1,2,3]triazol-2-yl-phenyl)-methanone]		
10 nM	1850 nM	6800 nM	Cc1ccc(-n2nccn2)c(C(=O)N2[C@H](Cc3cccc(-n4nccn4)c3)COC[C@@H]2C)c1 [Example 73, [(3S,5R)-3-Methyl-5-(3-[1,2,3]triazol-2-yl-benzyl)-morpholin-4-yl]-(5-methyl-2-[1,2,3]triazol-2-yl-phenyl)-methanone]		
3 nM	547 nM	15000 nM	Cc1cc(C)c(-n2nccn2)c(C(=O)N2CCOC[C@H]2Cc2cccc(-n3nccn3)c2)c1 [Example 75, (3,5-Dimethyl-2-[1,2,3]triazol-2-yl-phenyl)-[(R)-3-(3-[1,2,3]triazol-2-yl-benzyl)-morpholin-4-yl]-methanone]		
17 nM	528 nM	22000 nM	COc1cc(C(=O)N2CCOC[C@H]2Cc2cccc(-n3nccn3)c2)c(-n2nccn2)cc1F [Example 78, (4-Fluoro-5-methoxy-2-[1,2,3]triazol-2-yl-phenyl)-[(R)-3-(3-[1,2,3]triazol-2-yl-benzyl)-morpholin-4-yl]-methanone]		
